One assay relates to Puccinia triticina. Put plainly: Wheat brown rust, whole-plant fungicidal activity (PUCCRT). Type of assay: in vivo, Puccinia triticina on wheat plants (variety 'Yuma'). The conditions noted are these: 24 h, 1DP (1 day protectant), read-out: % Disease Control Rating PUCCRT. Here is the method: Technical grades of materials were dissolved in acetone, which were then mixed with nine volumes of water (H2O) containing 110 ppm Triton X-100. The fungicide solutions were applied onto wheat seedlings using an automated booth sprayer to run-off. All sprayed plants were allowed to air dry prior to further handling. All fungicides were evaluated using the aforementioned method for their activity vs. all target diseases, unless stated otherwise.
Example B: Evaluation of Fungicidal Activity: Wheat Brown Rust (Puccinia triticina; Synonym: Puccinia recondita f sp. tritici; Bayer Code PUCCRT)
Wheat plants (variety ‘Yuma’) were grown from seed in a greenhouse in soil-less potting mix until the first leaf was fully emerged, with 7-10 seedlings per pot. These plants were inoculated with an aqueous spore suspension of Puccinia triticina after fungicide treatments. After inoculation, the plants were kept in a dark dew room with 100% relative humidity overnight to permit spores to germinate and infect the leaf. The plants were then transferred to a greenhouse for disease to develop. Fungicide formulation, application and disease assessment followed the procedures as described in Example A.

A further assay has as its system Rhynchosporium commune. Nature of the assay: Leaf blotch of barley, whole-plant fungicidal activity (RHYNSE). Type of assay: in vivo. The conditions noted are these: 24 h, 1DP (1 day protectant), read-out: % Disease Control Rating RHYNSE. Here is the method: Technical grades of materials were dissolved in acetone, which were then mixed with nine volumes of water (H2O) containing 110 ppm Triton X-100. The fungicide solutions were applied onto wheat seedlings using an automated booth sprayer to run-off. All sprayed plants were allowed to air dry prior to further handling. All fungicides were evaluated using the aforementioned method for their activity vs. all target diseases, unless stated otherwise. Example D: Evaluation of Fungicidal Activity: Leaf Blotch of Barley (Rhynchosporium commune; Bayer Code […]) Barley plants (variety 'Harrington') were grown from seed in a greenhouse in soil-less potting mix until the first leaf was fully emerged, with 7-10 seedlings per pot. These plants were inoculated with an aqueous spore suspension of Rhynchosporium commune after fungicide treatments. After inoculation, the plants were kept in a dark dew room with 100% relative humidity for two days to permit spores to germinate and infect the leaf. The plants were then transferred to a greenhouse for disease to develop. Fungicide formulation and application were made as described in Example A. Disease assessment was conducted as described in Example A.

The test system of a further assay is Zymoseptoria tritici. Put plainly: Septoria leaf blotch of wheat, whole-plant fungicidal activity (SEPTTR). In kind it is in vivo, Zymoseptoria tritici on wheat plants (variety 'Yuma'). The settings on record: read-out: % Disease Control Rating SEPTTR. As for the experimental part: Example A: Evaluation of Fungicidal Activity: Septoria Leaf Blotch of Wheat (Zymoseptoria tritici; Bayer Code […]) Technical grades of materials were dissolved in acetone, which were then mixed with nine volumes of water (H2O) containing 110 ppm Triton X-100. The fungicide solutions were applied onto wheat seedlings using an automated booth sprayer to run-off. All sprayed plants were allowed to air dry prior to further handling. All fungicides were evaluated using the aforementioned method for their activity vs. all target diseases, unless stated otherwise. Wheat plants (variety 'Yuma') were grown from seed in a greenhouse in soil-less potting mix until the first leaf was fully emerged, with 7-10 seedlings per pot. These plants were inoculated with an aqueous spore suspension of Zymoseptoria tritici either 3 days prior to fungicide treatment (3 day curative; 3DC) or 1 day after fungicide treatment (1 day protectant; 1DP). After inoculation the plants were kept in 100% relative humidity for three days to permit spores to germinate and infect the leaf. The plants were then transferred to a greenhouse for disease to develop. When disease symptoms were fully expressed on the 1st leaves of untreated plants, infection levels were assessed on a scale of 0 to 100 percent disease severity. Percent disease control was calculated using the ratio of disease severity on treated plants relative to untreated plants.

The subject of another assay is Phakopsora pachyrhizi. Put plainly: Asian soybean rust, whole-plant fungicidal activity (PHAKPA). Type of assay: in vivo. The settings on record: read-out: % Disease Control Rating PHAKPA. Here is the method: Example C: Evaluation of Fungicidal Activity: Asian Soybean Rust (Phakopsora pachyrhizi; Bayer Code […]) Technical grades of materials were dissolved in acetone, which were then mixed with nine volumes of H2O containing 0.011% Tween-20. The fungicide solutions were applied onto soybean seedlings using an automated booth sprayer to run-off. All sprayed plants were allowed to air dry prior to further handling. Soybean plants (variety 'Williams 82') were grown in soil-less potting mix, with one plant per pot. Ten-day-old seedlings were used for testing. Plants were inoculated as described in Example A. Plants were incubated for 24 h in a dark dew room with 100% relative humidity then transferred to a growth room for disease to develop. Fungicide formulation and application were made as described in Example A. When disease symptoms were fully expressed, disease severity was assessed on the sprayed leaves on a scale of 0 to 100 percent. Percent disease control was calculated using the ratio of disease severity on treated plants relative to untreated plants.

SMILES strings stand for the structures. Like-named read-outs stand apart in the source and are kept apart here.

As to `CCN(C)/C=N/c1cc(C)c(C(=O)Cc2c(F)cc(F)cc2F)cc1C` [Compound 23], the pest or weed control at 200 ppm in the assay with Puccinia triticina was greater than 85%; in the assay with Rhynchosporium commune it was greater than 85%; in the assay with Zymoseptoria tritici (24 h, 1DP (1 day protectant)) it was 20 to 50%; in the assay on Zymoseptoria tritici (72 h, 3DC (3 day curative)), less than 20%; with Phakopsora pachyrhizi (24 h, 1DP (1 day protectant)) it was greater than 85%; in the assay with Phakopsora pachyrhizi (72 h, 3DC (3 day curative)), greater than 85%.
Regarding `CCN(C)/C=N/c1cc(C)c(C(=O)Cc2cccc(C(=O)OC)c2)cc1C` [Compound 24], the pest or weed control at 200 ppm in the assay on Puccinia triticina was greater than 85%; in the assay on Rhynchosporium commune it was less than 20%; in the assay with Zymoseptoria tritici (24 h, 1DP (1 day protectant)), less than 20%; with Zymoseptoria tritici (72 h, 3DC (3 day curative)), less than 20%; with Phakopsora pachyrhizi (24 h, 1DP (1 day protectant)), less than 20%; in the assay on Phakopsora pachyrhizi (72 h, 3DC (3 day curative)), less than 20%.
Consider `CCN(C)/C=N/c1cc(C)c(C(=O)C2CCC2)cc1C` [Compound 25], for which the pest or weed control at 200 ppm with Puccinia triticina is greater than 85%; in the assay on Rhynchosporium commune it was greater than 85%; in the assay with Zymoseptoria tritici (24 h, 1DP (1 day protectant)) it was 20 to 50%; in the assay with Zymoseptoria tritici (72 h, 3DC (3 day curative)), less than 20%; in the assay on Phakopsora pachyrhizi (24 h, 1DP (1 day protectant)) it was greater than 85%; in the assay on Phakopsora pachyrhizi (72 h, 3DC (3 day curative)) it was greater than 85%.
Consider `CCN(C)/C=N/c1cc(C)c(C(=O)C2CCCCC2)cc1C` [Compound 26], for which the pest or weed control at 200 ppm in the assay on Puccinia triticina is greater than 85%; in the assay on Rhynchosporium commune, greater than 85%; with Zymoseptoria tritici (24 h, 1DP (1 day protectant)), greater than 85%; in the assay on Zymoseptoria tritici (72 h, 3DC (3 day curative)), 20 to 50%; in the assay with Phakopsora pachyrhizi (24 h, 1DP (1 day protectant)) it was greater than 85%; with Phakopsora pachyrhizi (72 h, 3DC (3 day curative)), greater than 85%.
For the molecule `CCN(C)/C=N/c1cc(C)c(C(=O)CC2CCC2)cc1C` [Compound 27], the pest or weed control at 200 ppm is greater than 85% with Puccinia triticina; greater than 85% in the assay with Rhynchosporium commune; greater than 85% in the assay on Zymoseptoria tritici (24 h, 1DP (1 day protectant)); 50 to 85% in the assay on Zymoseptoria tritici (72 h, 3DC (3 day curative)); greater than 85% in the assay on Phakopsora pachyrhizi (24 h, 1DP (1 day protectant)); greater than 85% with Phakopsora pachyrhizi (72 h, 3DC (3 day curative)).
`CCN(C)/C=N/c1cc(C)c(C(=O)CCC(F)(F)C(F)(F)F)cc1C` [Compound 29]: the pest or weed control at 200 ppm in the assay with Puccinia triticina was greater than 85%; with Rhynchosporium commune, greater than 85%; with Zymoseptoria tritici (24 h, 1DP (1 day protectant)), 50 to 85%; in the assay with Zymoseptoria tritici (72 h, 3DC (3 day curative)), 50 to 85%; with Phakopsora pachyrhizi (24 h, 1DP (1 day protectant)) it was greater than 85%; in the assay with Phakopsora pachyrhizi (72 h, 3DC (3 day curative)) it was greater than 85%.
In the case of `CCN(C)/C=N/c1cc(F)c(C(=O)CC2CCCC2)cc1C` [Compound 30], the pest or weed control at 200 ppm in the assay on Puccinia triticina was 50 to 85%; in the assay with Rhynchosporium commune, less than 20%; with Zymoseptoria tritici (24 h, 1DP (1 day protectant)) it was less than 20%; in the assay with Zymoseptoria tritici (72 h, 3DC (3 day curative)), less than 20%; with Phakopsora pachyrhizi (24 h, 1DP (1 day protectant)) it was greater than 85%; in the assay on Phakopsora pachyrhizi (72 h, 3DC (3 day curative)), greater than 85%.
As to `CCN(C)/C=N/c1cc(C)c(C(=O)Cc2cccc(C(=O)OC)c2F)cc1C` [Compound 31], the pest or weed control at 200 ppm in the assay on Puccinia triticina is greater than 85%; in the assay with Rhynchosporium commune, 50 to 85%; in the assay with Zymoseptoria tritici (24 h, 1DP (1 day protectant)), greater than 85%; in the assay with Zymoseptoria tritici (72 h, 3DC (3 day curative)), less than 20%; in the assay with Phakopsora pachyrhizi (24 h, 1DP (1 day protectant)) it was less than 20%; in the assay on Phakopsora pachyrhizi (72 h, 3DC (3 day curative)), less than 20%.
`CCN(C)/C=N/c1cc(C)c(C(=O)Cc2ccc(Cl)cc2F)cc1C` [Compound 32]: the pest or weed control at 200 ppm with Puccinia triticina was greater than 85%; in the assay on Rhynchosporium commune, greater than 85%; in the assay on Zymoseptoria tritici (24 h, 1DP (1 day protectant)), greater than 85%; with Zymoseptoria tritici (72 h, 3DC (3 day curative)) it was less than 20%; with Phakopsora pachyrhizi (24 h, 1DP (1 day protectant)) it was greater than 85%; with Phakopsora pachyrhizi (72 h, 3DC (3 day curative)) it was greater than 85%.
For the molecule `CCN(C)/C=N/c1cc(C)c(C(=O)Cc2ccccc2OC(F)(F)F)cc1C` [Compound 33], the pest or weed control at 200 ppm in the assay with Puccinia triticina is greater than 85%; in the assay on Rhynchosporium commune it was greater than 85%; in the assay with Zymoseptoria tritici (24 h, 1DP (1 day protectant)), greater than 85%; in the assay on Zymoseptoria tritici (72 h, 3DC (3 day curative)), 50 to 85%; in the assay on Phakopsora pachyrhizi (24 h, 1DP (1 day protectant)) it was greater than 85%; with Phakopsora pachyrhizi (72 h, 3DC (3 day curative)), greater than 85%.
